Data from patent US20150119344A1, “COMPOSITIONS AND METHODS FOR THE TREATMENT OF CARDIOVASCULAR AND NEUROLOGICAL DISEASES” (priority 2012, published 2015).

Experiment: Water solubility: distilled water added to a weighed amount until a clear solution was obtained
Assay type: physicochemical
Details: for solubility: thermodynamic from solid, distilled water, weight in mg divided by volume of the clear solution in mL
Description: Measurement of the water solubility of the test compounds is accomplished by using methods well known to those skilled in the art. Specifically, to a weighed amount of the test compound of the example compound Formula I (Ib) distilled water was added in small proportions until a clear solution was obtained. The total volume of the solution is measured. The water solubility is calculated by dividing the weight of the salt, in milligrams (mg), by the volume of the solution, in mL. […] The compound of Formula I (Ib) is therefore, at least 368 times more soluble in water than EPA itself. This is a clear indication of an unexpectedly high degree of bioavailability of the compositions of the invention. Highly water soluble medicinal preparations, when administered orally, result in efficient absorption from the gastrointestinal tract in to systemic circulation. Furthermore, water soluble preparations are especially suitable for parenteral administration.

| solubility [mg/mL] | times more soluble in water than EPA (ratio of water solubility versus EPA) | Compound |
| --- | --- | --- |
| < 0.2 |  | CC/C=C\C/C=C\C/C=C\C/C=C\C/C=C\CCCC(=O)O [EPA, Eicosapentaenoic Acid, reference compound] |
| 68.6 | at least 368 times | CC/C=C\C/C=C\C/C=C\C/C=C\C/C=C\CCCC(=O)OCC1OC(O)(CO)C(O)C1O (stereo not drawn) [Formula I (Ib)] |
